# Test system: JFH 5a-GFP
# Assay: Real time assessment of anti-viral activity in individual JFH 5a-GFP infected Huh 7.5.1 cells (time-lapse confocal GFP fluorescence)
# Type: cell-based, hepatitis C virus
# Conditions: 1000 IU/ml IFN-α, monitored every 12 hours up to 60 hours, FIGS. 13-16
# Experimental: Huh 7.5.1 cells were infected with culture supernatant obtained from the transformant transfected with JFH 5a-GFP RNA (the transformant was transformed with the introduction of JFH 5a-GFP RNA via electroporation into Huh 7.5.1 cells, in Example 2-1).
# After treating or mock-treating (i.e., no IFN-α treated) the transformant with IFN-α, GFP fluorescence was monitored every 12 hours up to 60 hours by using time-lapse confocal microscopy (Zeiss LSM 5 Live). For time-lapse imaging, coverslips were mounted onto the microscope stage, which was equipped with a temperature- and gas-controlled chamber (Chamide IC, Live Cell Instrument, Korea).
# In addition, quantitative analyses of the fluorescence images of 8 cells were made by using MetaMorph software. The grouping of the figures was made depending on whether the cell was treated with IFN-α.
# FIGS. 10 and 14 are graphs showing changing fluorescence levels in 8 transformants, in absolute values. FIGS. 11 and 15 are graphs showing changing fluorescence levels over time in 8 transformants, in relative values against the starting value, i.e., the value given to the transformants with no IFN-α treated.
substance,measurement,value
Interferon-alpha [IFN-α],5a-GFP fluorescence intensities over time in 8 transformants,seven among eight transformants showed decreasing fluorescence intensities over time
